Experimental data published in PubChem BioAssay (NCI).
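Where inhibition never reached the appropriate level, the endpoint shown equals the highest concentration tested. Otherwise, values were interpolated linearly from a five-concentration, 48-hour dose response in 96-well plates. At the TGI there is no net growth.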

Columns and labels:
Test in all cases: NCI-60 cell line screen, 48 h
[1] = tested on: 786-0 renal
[2] = tested on: A498 renal
[3] = tested on: A549 NSCLC
[4] = tested on: ACHN renal
[5] = tested on: BT-549 breast
[6] = tested on: CAKI-1 renal
[7] = tested on: CCRF-CEM leukemia
[8] = tested on: COLO 205 colon
[9] = tested on: DU-145 prostate
[10] = tested on: EKVX NSCLC
[11] = tested on: HCC-2998 colon
[12] = tested on: HCT-116 colon
[13] = tested on: HCT-15 colon
[14] = tested on: HL-60(TB) leukemia
[15] = tested on: HOP-62 NSCLC
[16] = tested on: HOP-92 NSCLC
[17] = tested on: HS 578T breast
[18] = tested on: HT29 colon
[19] = tested on: IGROV1 ovarian
[20] = tested on: K-562 leukemia
[21] = tested on: KM12 colon
[22] = tested on: LOX IMVI melanoma
[23] = tested on: M14 melanoma
[24] = tested on: MALME-3M melanoma
[25] = tested on: MCF7 breast
[26] = tested on: MDA-MB-231 breast
[27] = tested on: MDA-MB-435
[28] = tested on: MDA-N
[29] = tested on: MOLT-4 leukemia
[30] = tested on: NCI-H226 lung
[31] = tested on: NCI-H23 lung
[32] = tested on: NCI-H460 lung
[33] = tested on: NCI-H522 lung
[34] = tested on: NCI/ADR-RES ovarian
[35] = tested on: OVCAR-3 ovarian
[36] = tested on: OVCAR-4 ovarian
[37] = tested on: OVCAR-5 ovarian
[38] = tested on: OVCAR-8 ovarian
[39] = tested on: PC-3 prostate
[40] = tested on: RPMI-8226 leukemia
[41] = tested on: RXF 393 renal
[42] = tested on: SF-268 CNS
[43] = tested on: SF-295 CNS
[44] = tested on: SF-539 CNS
[45] = tested on: SK-MEL-2 melanoma
[46] = tested on: SK-MEL-28 melanoma
[47] = tested on: SK-MEL-5 melanoma
[48] = tested on: SK-OV-3 ovarian
[49] = tested on: SN12C renal
[50] = tested on: SNB-19 CNS
[51] = tested on: SNB-75 CNS
[52] = tested on: SR leukemia
[53] = tested on: SW-620 colon
[54] = tested on: T-47D breast
[55] = tested on: TK-10 renal
[56] = tested on: U251 CNS
[57] = tested on: UACC-257 melanoma
[58] = tested on: UACC-62 melanoma
[59] = tested on: UO-31 renal

Q: Which results are given for CN1CCC(CN2c3ccccc3Sc3ccccc32)C1 (stereo not drawn)?
A: TGI [1]: 27.9 µM; TGI [2]: 26.2 µM; TGI [3]: 32.2 µM; TGI [4]: 27.9 µM; TGI [5]: 30.8 µM; TGI [6]: 28.8 µM; TGI [7]: 31.6 µM; TGI [8]: 25.2 µM; TGI [9]: 38.1 µM; TGI [10]: 31.5 µM; TGI [11]: 24.7 µM; TGI [12]: 26.9 µM; TGI [13]: 31.4 µM; TGI [14]: 29.7 µM; TGI [15]: 28.5 µM; TGI [16]: 29.5 µM; TGI [17]: 36.7 µM; TGI [18]: 23.8 µM; TGI [19]: 31.6 µM; TGI [20]: 27.4 µM; TGI [21]: 34.5 µM; TGI [22]: 30 µM; TGI [23]: 23.5 µM; TGI [24]: 31.7 µM; TGI [25]: 35 µM; TGI [26]: 27.4 µM; TGI [27]: 23.7 µM; TGI [28]: 27.7 µM; TGI [29]: 38.7 µM; TGI [30]: 35 µM; TGI [31]: 36 µM; TGI [32]: 28.2 µM; TGI [33]: 32 µM; TGI [34]: 29.8 µM; TGI [35]: 28.6 µM; TGI [36]: 28.1 µM; TGI [37]: 31.8 µM; TGI [38]: 31.9 µM; TGI [39]: 25.4 µM; TGI [40]: 33.8 µM; TGI [41]: 17.4 µM; TGI [42]: 29.5 µM; TGI [43]: 29.8 µM; TGI [44]: 31.9 µM; TGI [45]: 30.6 µM; TGI [46]: 19.4 µM; TGI [47]: 27.7 µM; TGI [48]: 31.6 µM; TGI [49]: 29.1 µM; TGI [50]: 33.1 µM; TGI [51]: 11.1 µM; TGI [52]: 29.6 µM; TGI [53]: 35.7 µM; TGI [54]: 34.2 µM; TGI [55]: 31.4 µM; TGI [56]: 26.6 µM; TGI [57]: 24.4 µM; TGI [58]: 25.9 µM; TGI [59]: 30 µM

Q: What does the source list for CCOc1ccc(C2Oc3c(cccc3OC)C=C2[N+](=O)[O-])cc1OCC (stereo not drawn)?
A: TGI [1]: 9.77 µM; TGI [2]: 24 µM; TGI [3]: 49.4 µM; TGI [4]: 14.6 µM; TGI [5]: 29.6 µM; TGI [6]: 17.3 µM; TGI [7]: 6.88 µM; TGI [8]: 12.8 µM; TGI [9]: 28.6 µM; TGI [10]: 40 µM; TGI [11]: 38.3 µM; TGI [12]: 3.31 µM; TGI [13]: 19 µM; TGI [14]: 7.07 µM; TGI [15]: 19.2 µM; TGI [16]: 27 µM; TGI [17]: > 100 µM; TGI [18]: 8.11 µM; TGI [19]: 11.1 µM; TGI [20]: 5.19 µM; TGI [21]: 20.1 µM; TGI [22]: 5.52 µM; TGI [23]: 7.01 µM; TGI [24]: 5.74 µM; TGI [25]: > 100 µM; TGI [26]: 10.1 µM; TGI [27]: 16.7 µM; TGI [28]: 5.79 µM; TGI [29]: > 28.4 µM; TGI [30]: 46.6 µM; TGI [31]: 19.7 µM; TGI [32]: 26.8 µM; TGI [33]: 3.7 µM; TGI [34]: 17.9 µM; TGI [35]: 19.6 µM; TGI [36]: 43.9 µM; TGI [37]: 23.3 µM; TGI [38]: 4.75 µM; TGI [39]: 14.9 µM; TGI [40]: 6.49 µM; TGI [41]: 11.5 µM; TGI [42]: 47.2 µM; TGI [43]: 32.4 µM; TGI [44]: 5.24 µM; TGI [45]: 19.8 µM; TGI [46]: 5.74 µM; TGI [47]: 16.6 µM; TGI [48]: 64.9 µM; TGI [49]: > 67.1 µM; TGI [50]: 45.2 µM; TGI [51]: > 56.5 µM; TGI [52]: 5.6 µM; TGI [53]: 4.22 µM; TGI [54]: > 47.5 µM; TGI [55]: 31.6 µM; TGI [56]: 12.9 µM; TGI [57]: 12.8 µM; TGI [58]: 23.3 µM; TGI [59]: 8.8 µM
